Test systems include SK-MEL-2; NCI-H23; IGROV-1; M14; HCT-15; COLO 205; T47D; SW-620; SNB-75; HOP-62; Hs-578T; RXF 393; SK-OV-3; HT-29; SN12C; DU-145; MDA-MB-231; A549; HL-60; SNB-19.
Holding throughout (assay): inhibition of tumour cell growth, NCI panel, 48 h

We go through 7 compounds from ChEMBL document CHEMBL1201862, “PubChem BioAssay data set” (2004).

Structures are written as SMILES.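 These data come from cells grown in 96-well plates and exposed to compound for 48 hours at five concentrations. GI50 marks 50% less growth.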 Calls of active or inactive are those of the source. Rule as the data show it: active = GI50 up to about 1.1 µM and inactive = higher.

As to `O=[N+]([O-])c1ccc(CSc2c3ccccc3nc3ccccc23)cc1`, the GI50 with SK-MEL-2 is 16.9 µM (inactive); in the assay with NCI-H23 it was 7.05 µM (inactive); with IGROV-1, 2.82 µM (inactive); in the assay on M14, 4.56 µM (inactive); in the assay on HCT-15, 3.91 µM; in the assay on COLO 205 it was 3.13 µM (inactive). The GI50 was 1.85 µM (inactive) with T47D; 2.88 µM (inactive) in the assay on SW-620; 19 µM (inactive) with SNB-75; 18.3 µM (inactive) in the assay on HOP-62; 3.21 µM (inactive) with Hs-578T; 5.47 µM (inactive) with RXF 393. Further, the GI50 was 22 µM (inactive) in the assay with SK-OV-3; 2.28 µM (inactive) with HT-29; 3.52 µM (inactive) in the assay on SN12C; 2.3 µM (inactive) in the assay with DU-145; 13.5 µM (inactive) with MDA-MB-231; 23.9 µM (inactive) in the assay with A549. Further, the results for the GI50 in the assay on HL-60 and with SNB-19 were 2.52 µM (inactive) and 15.8 µM (inactive), respectively.
With `Oc1ccc(Cl)cc1/C=N/c1cnc2ccccc2c1`, the GI50 in the assay with SK-MEL-2 was 27.2 µM (inactive); in the assay with NCI-H23 it was 33.9 µM (inactive); with IGROV-1, 16 µM (inactive); in the assay on M14 it was 16.9 µM (inactive); with HCT-15, 4.4 µM; with COLO 205, 53.8 µM (inactive). Also, the GI50 with T47D was 4.81 µM (inactive); in the assay with SW-620, 24.8 µM (inactive); in the assay on SNB-75 it was 33.1 µM (inactive); in the assay with HOP-62 it was 35.5 µM (inactive); in the assay with Hs-578T it was > 68.9 µM (inactive); with RXF 393, > 100 µM (inactive). Moreover, the GI50 with SK-OV-3 is 33.3 µM (inactive); in the assay with HT-29 it was 36.6 µM (inactive); with SN12C, 30.3 µM (inactive); with DU-145, 41.5 µM (inactive); with MDA-MB-231 it was 32.6 µM (inactive); in the assay on A549, > 92.7 µM (inactive). The GI50 is 4.56 µM (inactive) in the assay with HL-60 and 29 µM (inactive) with SNB-19.
Consider `O=C1C=C(NCCc2cc(Br)c(O)c(Br)c2)C(=O)c2[nH]cnc21`, for which the GI50 in the assay on SK-MEL-2 is 23.4 µM (inactive); in the assay with NCI-H23, 10.8 µM (inactive); in the assay on IGROV-1, 17.6 µM (inactive); in the assay on M14, 24.6 µM (inactive); in the assay on HCT-15, 18 µM; in the assay on COLO 205, 24.7 µM (inactive). The GI50 is 30.3 µM (inactive) in the assay on T47D; 21.6 µM (inactive) in the assay with SW-620; 21.9 µM (inactive) in the assay with SNB-75; 38.6 µM (inactive) in the assay on HOP-62; 7.35 µM (inactive) in the assay on Hs-578T; 19.5 µM (inactive) in the assay with RXF 393. In addition, the GI50 with SK-OV-3 was 41.2 µM (inactive); in the assay on HT-29, 26.9 µM (inactive); in the assay with SN12C, 26.2 µM (inactive); with DU-145, 36.7 µM (inactive); with MDA-MB-231, 29.4 µM (inactive); in the assay with A549, 32 µM (inactive). Moreover, the GI50 with HL-60 is > 10 µM (inactive); in the assay on SNB-19, 36.1 µM (inactive).
With `C=C(Br)CNCC(=C)Br`, the GI50 in the assay on SK-MEL-2 is > 100 µM (inactive); in the assay on NCI-H23, > 100 µM (inactive); with IGROV-1, > 100 µM (inactive); in the assay with M14 it was > 100 µM (inactive); in the assay with HCT-15, above 100 µM; with COLO 205, 52 µM (inactive). Further, the GI50 in the assay with T47D is > 100 µM (inactive); with SW-620, > 100 µM (inactive); in the assay on SNB-75, 68.5 µM (inactive); with HOP-62 it was > 100 µM (inactive); with Hs-578T it was > 100 µM (inactive); in the assay on RXF 393, > 100 µM (inactive). Besides, the GI50 with SK-OV-3 was > 100 µM (inactive); in the assay with HT-29 it was 90.6 µM (inactive); in the assay with SN12C it was > 100 µM (inactive); in the assay with DU-145, > 100 µM (inactive); in the assay with MDA-MB-231, > 100 µM (inactive); in the assay on A549 it was > 100 µM (inactive). Also, the GI50 is 26.7 µM (inactive) in the assay on HL-60 and > 100 µM (inactive) with SNB-19.
With `Oc1ccc(Cl)cc1Cc1cc(Cl)cc(Cc2cc(Cl)ccc2O)c1O`, the GI50 is 2.61 µM (inactive) in the assay on SK-MEL-2; 2.01 µM (inactive) in the assay on NCI-H23; 3.2 µM (inactive) with IGROV-1; 2.39 µM (inactive) with M14; 2.54 µM with HCT-15; 1.76 µM (inactive) with COLO 205. For the same compound, the GI50 in the assay on T47D is 2.07 µM (inactive); with SW-620, 3.29 µM (inactive); with SNB-75, 1.93 µM (inactive); with HOP-62, 2.5 µM (inactive); in the assay with Hs-578T, 1.88 µM (inactive); in the assay with RXF 393, 1.84 µM (inactive). The GI50 in the assay on SK-OV-3 was 2.43 µM (inactive); in the assay on HT-29 it was 3 µM (inactive); in the assay with SN12C it was 2.4 µM (inactive); in the assay on DU-145, 2.96 µM (inactive); in the assay on MDA-MB-231, 2.53 µM (inactive); in the assay on A549, 2.83 µM (inactive). Further, the GI50 is 2.3 µM (inactive) in the assay with HL-60 and 2.56 µM (inactive) in the assay with SNB-19.
Regarding `CC(C)OP(=O)(OC(C)C)/C(C#N)=C/c1c[nH]c2ccccc12`, the GI50 in the assay on SK-MEL-2 is > 100 µM (inactive); in the assay on NCI-H23, 46.2 µM (inactive); in the assay with IGROV-1, > 100 µM (inactive); in the assay with M14, 60.7 µM (inactive); in the assay on HCT-15 it was above 100 µM; in the assay with COLO 205, 88.9 µM (inactive). Also, the GI50 with T47D is 49.8 µM (inactive); in the assay with SW-620, > 100 µM (inactive); in the assay with SNB-75 it was 72.6 µM (inactive); with HOP-62, > 100 µM (inactive); in the assay with Hs-578T, > 100 µM (inactive); with RXF 393, > 100 µM (inactive). The GI50 in the assay on SK-OV-3 was 92 µM (inactive); in the assay with HT-29, > 100 µM (inactive); in the assay on SN12C it was > 100 µM (inactive); in the assay on DU-145 it was > 100 µM (inactive); in the assay on MDA-MB-231, > 100 µM (inactive); with A549, > 100 µM (inactive). The GI50 with HL-60 was 19.1 µM (inactive); in the assay with SNB-19, > 100 µM (inactive).
For `CNC1=C(C)C(=O)C(O)=C([C@H](C)CCC=C(C)C)C1=O`, the GI50 in the assay on SK-MEL-2 was 17.7 µM (inactive); with NCI-H23, 20 µM (inactive); in the assay on IGROV-1, 3.91 µM (inactive); in the assay on M14, 22.2 µM (inactive); with HCT-15 it was 6.92 µM; in the assay on COLO 205, 25.4 µM (inactive). The GI50 in the assay on T47D was 25.4 µM (inactive); with SW-620, 23.9 µM (inactive); in the assay on SNB-75, 18 µM (inactive); in the assay on HOP-62, 12.8 µM (inactive); in the assay with Hs-578T it was 28.3 µM (inactive); in the assay on RXF 393 it was 30.7 µM (inactive). The GI50 in the assay on SK-OV-3 was 23.9 µM (inactive); in the assay with HT-29 it was 36.6 µM (inactive); in the assay on SN12C, 22.8 µM (inactive); with DU-145, 30.6 µM (inactive); in the assay on MDA-MB-231 it was 48 µM (inactive); in the assay on A549 it was 20.3 µM (inactive). The GI50 is 2.4 µM (inactive) with HL-60 and 31.8 µM (inactive) with SNB-19.
